Reference: patent US9447106B2, “Substituted pyrazolo[1,5-a]pyrimidines as bruton's tyrosine kinase modulators” (Beigene, Ltd., priority 2013, dated 2016)
Structures can show the parent of a compound that is named as a salt.

Molecular target: phosphorylated Btk at Tyr223 in Ramos cells (Homo sapiens (Human), UniProt Q06187)
Test: Btk pY223 cellular assay (HTRF) in Ramos cells
Type: cell-based
Details: 1 hour compound incubation, pervanadate or Na3VO4 stimulation

Sequence of phosphorylated Btk at Tyr223 in Ramos cells (Q06187 whole entry): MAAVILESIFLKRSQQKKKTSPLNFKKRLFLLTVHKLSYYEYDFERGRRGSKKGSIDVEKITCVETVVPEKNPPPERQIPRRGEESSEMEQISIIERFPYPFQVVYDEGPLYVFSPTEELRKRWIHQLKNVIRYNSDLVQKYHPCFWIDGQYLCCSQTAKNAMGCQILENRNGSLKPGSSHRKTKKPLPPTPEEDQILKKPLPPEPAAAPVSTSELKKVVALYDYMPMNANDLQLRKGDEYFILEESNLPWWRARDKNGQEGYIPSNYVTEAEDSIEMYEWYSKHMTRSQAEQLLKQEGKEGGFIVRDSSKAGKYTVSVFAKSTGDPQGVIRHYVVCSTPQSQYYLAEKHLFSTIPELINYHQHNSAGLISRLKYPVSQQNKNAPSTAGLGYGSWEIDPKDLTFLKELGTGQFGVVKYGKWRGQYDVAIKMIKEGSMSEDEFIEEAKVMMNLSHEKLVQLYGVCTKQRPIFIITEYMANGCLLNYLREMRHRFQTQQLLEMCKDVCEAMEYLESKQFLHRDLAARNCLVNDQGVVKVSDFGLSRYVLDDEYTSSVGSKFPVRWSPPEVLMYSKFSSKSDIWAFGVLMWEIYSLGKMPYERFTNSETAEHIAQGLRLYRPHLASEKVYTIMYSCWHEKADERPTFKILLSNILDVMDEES

Row | Compound | IC50 [nM]
1 | CN(C)CC#CC(=O)N1CCC([C@@H]2CCNc3c(C(N)=O)c(-c4ccc(Oc5ccccc5)cc4)nn32)CC1 [Compound 188, (S)-7-(1-(4-(Dimethylamino)but-2-ynoyl)piperidin-4-yl)-2-(4-phenoxyphenyl)-4,5,6,7-tetrahydropyrazolo-[1,5-a]pyrimidine-3-carboxamide] | 8.5
2 | NC(=O)c1c(-c2ccc(Oc3ccccc3)cc2)nn2c1NCC[C@H]2C1CCN(C(=O)C#CCN2CCCC2)CC1 [Compound 187, (S)-2-(4-Phenoxyphenyl)-7-(1-(4-(pyrrolidin-1-yl)but-2-ynoyl)piperidin-4-yl)-4,5,6,7-tetrahydropyrazolo-[1,5-a]pyrimidine-3-carboxamide] | 7.3
3 | C=CC(=O)N1CCCC1C1CCNc2c(C(N)=O)c(-c3ccc(Oc4ccccc4)cc3)nn21 (centres unmarked) [Compound 103, 7-(1-acryloylpyrrolidin-2-yl)-2-(4-phenoxyphenyl)-4,5,6,7-tetrahydropyrazolo-[1,5-a]pyrimidine-3-carboxamide] | 14
4 | CN(C)CCC(=O)N1CCc2[nH]c3c(C(N)=O)c(-c4ccc(Oc5ccccc5)cc4)nn3c2C1 [Compound 57, 7-(3-(Dimethylamino)propanoyl)-2-(4-phenoxyphenyl)-5,6,7,8-tetrahydro-4H-pyrazolo[5′,1′:2,3]imidazo[4,5-c]pyridine-3-carboxamide trifluoroacetate] | 233
5 | C=CC(=O)N1CC(C2CCNc3c(C(N)=O)c(-c4ccc(Oc5cccc(Cl)c5)cc4)nn32)C1 (centres unmarked) [Compound 107, 7-(1-acryloylazetidin-3-yl)-2-(4-(3-chlorophenoxy)phenyl)-4,5,6,7-tetrahydropyrazolo[1,5-a]pyrimidine-3-carboxamide] | 11.2
6 | CC=CC(=O)N1CCc2[nH]c3c(C(N)=O)c(-c4ccc(Oc5ccccc5)cc4)nn3c2C1 [Compound 58, 7-(But-2-enoyl)-2-(4-phenoxyphenyl)-5,6,7,8-tetrahydro-4H-pyrazolo[5′,1′:2,3]imidazo[4,5-c]pyridine-3-carboxamide] | 4.6
7 | C=CC(=O)N1CC(C2(C)CCNc3c(C(N)=O)c(-c4ccc(Oc5ccccc5)cc4)nn32)C1 (centres unmarked) [Compound 175, 7-(1-Acryloylazetidin-3-yl)-7-methyl-2-(4-phenoxyphenyl)-4,5,6,7-tetrahydropyrazolo-[1,5-a]pyrimidine-3-carboxamide] | 17.6
8 | CC#CC(=O)N1CC(C2CCNc3c(C(N)=O)c(-c4ccc(Oc5ccccc5)cc4)nn32)C1 (centres unmarked) [Compound 184, 7-(1-(But-2-ynoyl)azetidin-3-yl)-2-(4-phenoxyphenyl)-4,5,6,7-tetrahydropyrazolo-[1,5-a]pyrimidine-3-carboxamide] | 6.7
9 | C=CC(=O)Nc1ccc2c(c1)-n1nc(-c3ccc(Oc4ccccc4)cc3)c(C(N)=O)c1NC2 [Compound 69, 8-Acrylamido-2-(4-phenoxyphenyl)-4,5-dihydropyrazolo[1,5-a]quinazoline-3-carboxamide] | 34.4
10 | CCC#CC(=O)N1CCC([C@@H]2CCNc3c(C(N)=O)c(-c4ccc(Oc5ccccc5)cc4)nn32)CC1 [Compound 186, (S)-7-(1-(Pent-2-ynoyl)piperidin-4-yl)-2-(4-phenoxyphenyl)-4,5,6,7-tetrahydropyrazolo-[1,5-a]pyrimidine-3-carboxamide] | 10.3
11 | C=CC(=O)N1CCC2(CCNc3c(C(N)=O)c(-c4ccc(Oc5ccccc5)cc4)nn32)CC1 [Compound 43, 1-Acryloyl-2′-(4-phenoxyphenyl)-5′,6′-dihydro-4′H-spiro[piperidine-4,7′-pyrazolo[1,5-a]pyrimidine]-3′-carboxamide] | 75.8
12 | C=CC(=O)NC1CNc2c(C(N)=O)c(-c3ccc(Oc4ccccc4)cc3)nn2C1 (centres unmarked) [Compound 85, 6-Acrylamido-2-(4-phenoxyphenyl)-4,5,6,7-tetrahydropyrazolo[1,5-a]pyrimidine-3-carboxamide] | 73.2
13 | C=CC(=O)N1CC(C2CCNc3c(C(N)=O)c(-c4ccc(Oc5ccc(Cl)c(Cl)c5)cc4)nn32)C1 (centres unmarked) [Compound 132, 7-(1-acryloylazetidin-3-yl)-2-(4-(3,4-dichlorophenoxy)phenyl)-4,5,6,7-tetrahydropyrazolo[1,5-a]pyrimidine-3-carboxamide] | 6.2
14 | NC(=O)c1c(-c2ccc(Oc3ccccc3)cc2)nn2c1NCCC2C1CCN(C(=O)/C=C/CN2CCCCC2)CC1 (centres unmarked) [Compound 170, (E)-2-(4-Phenoxyphenyl)-7-(1-(4-(piperidin-1-yl)but-2-enoyl)piperidin-4-yl)-4,5,6,7-tetrahydropyrazolo[1,5-a]pyrimidine-3-carboxamide] | 33.7

The next lines start with the values.

Row | IC50 [nM] | Compound
15 | 2 | C=CC(=O)Nc1ccccc1C1CCNc2c(C(N)=O)c(-c3ccc(F)c(Cl)c3)nn21 (centres unmarked) [Compound 196, 7-(2-Acrylamidophenyl)-2-(3-chloro-4-fluorophenyl)-4,5,6,7-tetrahydropyrazolo-[1,5-a]pyrimidine-3-carboxamide]
16 | 23.6 | C=CC(=O)Nc1ccccc1C1CCNc2c(C(N)=O)c(-c3ccc(Oc4ccc(F)cc4)cc3)nn21 (centres unmarked) [Compound 12, 7-(2-Acrylamidophenyl)-2-(4-(4-fluorophenoxyl)phenyl)-4,5,6,7-tetrahydropyrazolo[1,5-a]pyrimidine-3-carboxamide]
17 | 7 | CN(C)C/C=C/C(=O)Nc1ccccc1C1CCNc2c(C(N)=O)c(-c3ccc(Oc4ccccc4)cc3)nn21 (centres unmarked) [Compound 92, (E)-7-(2-(4-(dimethylamino)but-2-enamido)-phenyl)-2-(4-phenoxyphenyl)-4,5,6,7-tetrahydropyrazolo-[1,5-a]pyrimidine-3-carboxamide]
18 | 3.2 | C=CC(=O)Nc1ccccc1C1CCNc2c(C(N)=O)c(-c3ccc(C(F)(F)F)c(Cl)c3)nn21 (centres unmarked) [Compound 162, 7-(2-Acrylamidophenyl)-2-(3-chloro-4-(trifluoromethyl)phenyl)-4,5,6,7-tetrahydropyrazolo[1,5-a]pyrimidine-3-carboxamide]
19 | 3.1 | C=CC(=O)N1CC(C2CCNc3c(C(N)=O)c(-c4ccc(Oc5ccccc5)c(Cl)c4)nn32)C1 (centres unmarked) [Compound 139, 7-(1-acryloylazetidin-3-yl)-2-(3-chloro-4-phenoxyphenyl)-4,5,6,7-tetrahydropyrazolo[1,5-a]pyrimidine-3-carboxamide]
20 | 20 | C=CC(=O)Nc1ccccc1C1CCNc2c(C(N)=O)c(-c3ccc(F)c(C)c3)nn21 (centres unmarked) [Compound 157, 7-(2-Acrylamidophenyl)-2-(4-fluoro-3-methylphenyl)-4,5,6,7-tetrahydropyrazolo[1,5-a]pyrimidine-3-carboxamide]
21 | 1.8 | C=CC(=O)Nc1ccccc1C1CCNc2c(C(N)=O)c(-c3ccc(F)c(Br)c3)nn21 (centres unmarked) [Compound 152, 7-(2-Acrylamidophenyl)-2-(3-bromo-4-fluorophenyl)-4,5,6,7-tetrahydropyrazolo[1,5-a]pyrimidine-3-carboxamide]
22 | 1.3 | C=CC(=O)Nc1ccccc1C1CCNc2c(C(N)=O)c(-c3ccc(Cl)c(OC)c3)nn21 (centres unmarked) [Compound 160, 7-(2-Acrylamidophenyl)-2-(4-chloro-3-methoxyphenyl)-4,5,6,7-tetrahydropyrazolo[1,5-a]pyrimidine-3-carboxamide]
23 | 165 | NC(=O)c1c(-c2ccc(F)c(Cl)c2)nn2c1NCCC2c1ccccc1NC(=O)/C=C/CN1CCCCC1 (centres unmarked) [Compound 153, (E)-2-(3-Chloro-4-fluorophenyl)-7-(2-(4-(piperidin-1-yl)but-2-enamido)phenyl)-4,5,6,7-tetrahydropyrazolo-[1,5-a]pyrimidine-3-carboxamide]
